Laboratory results published in PubChem BioAssay AID2060895 (Molecular Pharmacology Branch, DTP, NCI, 2025).
Each block holds one compound with its values, some of them ahead of it.

Test system: PDC 899932-113-R3-J6 complex spheroid viability
Assay: Anticancer human tumor 899932-113-R3-J6-PDC patient-derived melanoma cell line growth inhibition [RAS]
Conditions: for viability, T/C: stronger effect = lower value
Source text: RAS pathway inhibitors in Combinations in Complex Spheroids
A high-throughput screen of multi-cell type tumor spheroids was designed to identify active combinations of RAS pathway inhibitors and targeted small molecules. Complex spheroids include a stromal component modeled by human endothelial cells (HUVEC) and fibroblasts modeled by human mesenchymal stem cells (MSCs). The concentration ranges selected for each drug and investigational agent were based upon clinically achievable concentrations if the clinical Cmax of the agent was known.
Compounds. The drugs and investigational agents: abemaciclib (NSC768073), cobimetinib (NSC768068), divarasib (GDC6063, NSC841802), docetaxel (NSC628503), GDC-1971 (RLY-1971, NSC841576), gemcitabine (NSC613327), inavolisib (NSC800729), ipatasertib (NSC767898), KB-0742 (NSC834161), MRTX-1133 (NSC836407), osimertinib (NSC779217), RMC-4630 (NSC839698), RMC-6236 (NSC851965), RMC-6291 (NSC852671), Ro-3306 (NSC812927), sapanisertib (NSC764658), SN-38 (NSC673596), staurosporine (NSC755774), SY5609 (NSC837396), and tovorafenib (DAY101, NSC766906), were obtained from the National Cancer Institute (NCI) Developmental Therapeutics Program Chemical Repository. The FDA-approved anticancer drug set is available from the NCI Developmental Therapeutics Program. […] The stock solutions were prepared in dimethyl sulfoxide (DMSO, Sigma-Aldrich, St. Louis, MO, cat. D2650) at 800-fold the tested concentration and stored at -70 degrees C prior to their use. All drugs and investigational agents were tested over a range starting from a high concentration at or near the clinical Cmax and decreasing in half-log increments. If the clinical Cmax for an agent had not been determined, the highest concentration tested was 10 microM.
Cell Culture. All cells were maintained in an incubator at 37 degrees C and 5% CO2 with 95% humidity. The PDC lines were cultured according to standard operating procedures established by the NCI PDMR. All PDCs were thawed and cultured in Matrigel-coated flasks prepared with a working solution of 1X Ham's F-12 nutrient mix, without supplementation (Invitrogen, Waltham, MA, cat. 11765054), 100 U/mL penicillin-streptomycin (Invitrogen, cat. 15140122), and 2.5% Matrigel (Corning Inc., Corning, NY, cat. 354248) for the first three passages. The 362531-283-R-J2-PDC and 782815-120-R-J1-PDC lines were cultured in 6C/Colon 1B media, which includes advanced DMEM/F-12 (Thermo Fisher Scientific, cat. 12634028), 10 mM HEPES (Thermo Fisher Scientific, cat. 15630080), 1X GlutaMAX supplement (Thermo Fisher Scientific, cat. 35050061), 0.1 mg/mL primocin (InvivoGen, San Diego, CA, cat. ant-pm-2), 10% defined fetal bovine serum, heat inactivated (HyClone Laboratories Inc., Logan, UT, cat. SH30070.03HI), 50% L-WRN conditioned media (ATCC, cat. CRL-3276), 1.25 mM N-Acetyl-L-cysteine (Sigma-Aldrich, cat. A9165), 10 mM nicotinamide (Sigma-Aldrich, cat. N0636), 1X B-27 supplement (Thermo Fisher Scientific, cat. 17504044), 1X N-2 supplement (Thermo Fisher Scientific, cat. 17502048), 50 ng/mL human EGF (Thermo Fisher Scientific, cat. PHG0311), and 10 microM Y-27632 dihydrochloride (Tocris Bioscience, cat. 1254). The K12877-001-R-J1-PDC line was cultured in 6I media, which includes all 6C/Colon 1B media plus 10 ng/mL human FGF-10 (PeproTech, cat. 100-26), 1 ng/mL human FGF-2 (PeproTech, cat. 100-18B), 1 µM prostaglandin E2 (Tocris Bioscience, cat. 2296), […] hydrocortisone (Sigma-Aldrich, cat. H4001), and […] bovine insulin (Sigma-Aldrich, cat. I6634). The K86415-001-R-J1-PDC line was cultured in 6D media, which includes all 6C/Colon 1B media components minus the L-WRN conditioned media. The 485176-168-R4-J1-PDC was cultured in PANC media, which includes all 6C/Colon 1B media plus 100 ng/mL human FGF-10 (PeproTech, cat. 100-26), 500 nM SB-431542 (Selleckchem, cat. S1067), and 10 nM gastrin (Tocris Bioscience, cat. 3006). […]
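For viability, T/C in this document: spheroids exposed to agents for seven days before readout; 100% = DMSO vehicle control wells.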

IC50 (curve of first compound, second compound 0.0316 µM): 2.47 µM
IC50 (curve of first compound, second compound 0.1 µM): 2.57 µM
IC50 (curve of first compound, second compound 0.316 µM): 3.2 µM
IC50 (curve of first compound, second compound 1 µM): 3.47 µM
IC50 (curve of first compound, second compound 3.16 µM): 3.05 µM
IC50 (curve of first compound, second compound 10 µM): 3.12 µM
SMILES: CC1(O)CCCC1n1c(=O)c(C(F)F)cc2cnc(NC3CCN(S(C)(=O)=O)CC3)nc21 (centres undefined) + C#Cc1c(F)ccc2cc(O)cc(-c3ncc4c(N5CC6CCC(C5)N6)nc(OCC56CCCN5CC(F)C6)nc4c3F)c12
viability, T/C (second compound 0.0316 µM, first compound 0.0316 µM): 105%
viability, T/C (second compound 0.0316 µM, first compound 0.1 µM): 81.1%
viability, T/C (second compound 0.0316 µM, first compound 0.316 µM): 70.8%
viability, T/C (second compound 0.0316 µM, first compound 1 µM): 69.9%
viability, T/C (second compound 0.0316 µM, first compound 3.16 µM): 54.9%
viability, T/C (second compound 0.0316 µM, first compound 10 µM): 21.6%
viability, T/C (second compound 0.1 µM, first compound 0.0316 µM): 96.2%
viability, T/C (second compound 0.1 µM, first compound 0.1 µM): 86.9%
viability, T/C (second compound 0.1 µM, first compound 0.316 µM): 63.6%
viability, T/C (second compound 0.1 µM, first compound 1 µM): 62.3%
viability, T/C (second compound 0.1 µM, first compound 3.16 µM): 62%
viability, T/C (second compound 0.1 µM, first compound 10 µM): 24.5%
viability, T/C (second compound 0.316 µM, first compound 0.0316 µM): 99.2%
viability, T/C (second compound 0.316 µM, first compound 0.1 µM): 93%
viability, T/C (second compound 0.316 µM, first compound 0.316 µM): 75.9%
viability, T/C (second compound 0.316 µM, first compound 1 µM): 65.3%
viability, T/C (second compound 0.316 µM, first compound 3.16 µM): 56.6%
viability, T/C (second compound 0.316 µM, first compound 10 µM): 25.5%
viability, T/C (second compound 1 µM, first compound 0.0316 µM): 102%
viability, T/C (second compound 1 µM, first compound 0.1 µM): 89.7%
viability, T/C (second compound 1 µM, first compound 0.316 µM): 76.3%
viability, T/C (second compound 1 µM, first compound 1 µM): 70%
viability, T/C (second compound 1 µM, first compound 3.16 µM): 58.4%
viability, T/C (second compound 1 µM, first compound 10 µM): 24.7%
viability, T/C (second compound 3.16 µM, first compound 0.0316 µM): 114%
viability, T/C (second compound 3.16 µM, first compound 0.1 µM): 97.8%
viability, T/C (second compound 3.16 µM, first compound 0.316 µM): 69.8%
viability, T/C (second compound 3.16 µM, first compound 1 µM): 72.2%
viability, T/C (second compound 3.16 µM, first compound 3.16 µM): 62.4%
viability, T/C (second compound 3.16 µM, first compound 10 µM): 22.2%
viability, T/C (second compound 10 µM, first compound 0.0316 µM): 114%
viability, T/C (second compound 10 µM, first compound 0.1 µM): 89%
viability, T/C (second compound 10 µM, first compound 0.316 µM): 77.2%
viability, T/C (second compound 10 µM, first compound 1 µM): 68.8%
viability, T/C (second compound 10 µM, first compound 3.16 µM): 64.8%
viability, T/C (second compound 10 µM, first compound 10 µM): 11.3%

IC50 (curve of compound): 5.72 µM [middle of 4 runs]
SMILES: CC(C)NCC(C(=O)N1CCN(c2ncnc3c2C(C)CC3O)CC1)c1ccc(Cl)cc1 (centres undefined)
viability, T/C (compound 0.0316 µM): 110% [middle of 4 runs]
viability, T/C (compound 0.1 µM): 99.1% [middle of 4 runs]
viability, T/C (compound 0.316 µM): 97.7% [middle of 4 runs]
viability, T/C (compound 1 µM): 84.7% [middle of 4 runs]
viability, T/C (compound 3.16 µM): 62.5% [middle of 4 runs]
viability, T/C (compound 10 µM): 39.9% [middle of 4 runs]
